Assays:
blackgrass = experiment: Test B pre/postemergence blackgrass; assay type: in vivo, Alopecurus myosuroides
In short: (§1)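 Herbicidal effect was estimated by eye on a ten-point control scale after plants spent twelve to sixteen days in a greenhouse following soil or foliar treatment. Foliar sprays targeted plants at one to four leaves; all doses were formulated in a non-phytotoxic solvent with surfactant.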

bedstraw = experiment: Test B pre/postemergence bedstraw; assay type: in vivo, Galium aparine
In short: as §1

wheat = experiment: Test B pre/postemergence wheat; assay type: in vivo, Triticum aestivum
In short: as §1

cocklebur = experiment: Test B pre/postemergence cocklebur; assay type: in vivo, Xanthium strumarium
In short: as §1

soybean = experiment: Test B pre/postemergence soybean; assay type: in vivo, Glycine max
In short: as §1

bamyardgrass = experiment: Test B flood test barnyardgrass; assay type: in vivo, Echinochloa crus-galli
In short: (§2)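 Read-out is a visual response score from 0 (no effect) to 10 (complete control), assigned by comparison with untreated controls. Treatment was applied at the 2-leaf stage, and plants stayed in the greenhouse for twelve to sixteen days before scoring.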

rice = experiment: Test B flood test rice; assay type: in vivo, Oryza sativa
In short: as §2

pigweed = experiment: Test B pre/postemergence pigweed; assay type: in vivo, Amaranthus retroflexus
In short: as §1

smallflower flatsedge = experiment: Test B flood test smallflower flatsedge; assay type: in vivo, Cyperus difformis
In short: as §2

surinam grass = experiment: Test B pre/postemergence surinam grass; assay type: in vivo, Brachiaria decumbens
In short: as §1

wild oat = experiment: Test B pre/postemergence wild oat; assay type: in vivo, Avena fatua
In short: as §1

corn = experiment: Test B pre/postemergence corn; assay type: in vivo, Zea mays
In short: as §1

velvetleaf = experiment: Test B pre/postemergence velvetleaf; assay type: in vivo, Abutilon theophrasti
In short: as §1

crabgrass = experiment: Test B pre/postemergence crabgrass; assay type: in vivo, Digitaria sanguinalis
In short: as §1

morningglory = experiment: Test B pre/postemergence morningglory; assay type: in vivo, Ipomoea hederacea
In short: as §1

giant foxtail = experiment: Test B pre/postemergence giant foxtail; assay type: in vivo, Setaria faberii
In short: as §1

[1] = Postemergence, Rate 62 g/ha, scale 0 to 10, 0 is no effect, 10 is complete control
[2] = Postemergence, Rate 250 g/ha, scale 0 to 10, 0 no effect, 10 complete control
[3] = Preemergence, Rate 62 g/ha, scale 0 to 10, 0 is no effect, 10 is complete control
[4] = Preemergence, Rate 125 g/ha, scale 0 to 10 (0 no effect, 10 complete control)
[5] = Preemergence, Rate 250 g/ha, scale of 0 to 10 where 0 is no effect and 10 is complete control
[6] = Preemergence, Rate 500 g/ha, scale 0 (no effect) to 10 (complete control)
[7] = Rate 125 g/ha, Postemergence, scale 0 to 10, 0 no effect, 10 complete control
[8] = Rate 500 g/ha, Postemergence, 0 to 10 scale (0 no effect, 10 complete control)
[9] = Rate 125 g/ha, Postemergence section (flood test species), scale 0 to 10, 0 no effect, 10 complete control
[10] = Rate 500 g/ha, Postemergence section of Table B, 0 to 10 scale (0 no effect, 10 complete control)
[11] = flood test, listed under Postemergence, Rate 250 g/ha, scale 0 to 10, 0 no effect, 10 complete control

With `Cc1ccccc1-n1c(=O)on(C(=O)N(c2ccc([N+](=O)[O-])cc2)C(C)C)c1=O` [Compound 44] the “Blackgrass plant response rating” value (blackgrass; [1]) was 0, the “Blackgrass plant response rating” value (blackgrass; [2]) was 0 and the “Plant response rating, Blackgrass” value (blackgrass; [3]) was 0. For the same compound, the “Plant response rating, Blackgrass” value (blackgrass; [4]) was 0, the “Plant response rating, Blackgrass” value (blackgrass; [5]) was 0 and the “Blackgrass plant response rating” value (blackgrass; [6]) was 1. For the same compound, the “Blackgrass plant response rating” value (blackgrass; [7]) was 0, the “Blackgrass plant response rating” value (blackgrass; [8]) was 0 and the “Bedstraw plant response rating” value (bedstraw; [1]) was 0. For the same compound, the “Bedstraw plant response rating” value (bedstraw; [2]) was 0, the “Plant response rating, Bedstraw” value (bedstraw; [3]) was 0 and the “Plant response rating, Bedstraw” value (bedstraw; [4]) was 0. For the same compound, the “Plant response rating, Bedstraw” value (bedstraw; [5]) was 0, the “Bedstraw plant response rating” value (bedstraw; [6]) was 0 and the “Bedstraw plant response rating” value (bedstraw; [7]) was 0. The “Bedstraw plant response rating” value (bedstraw; [8]) was 0, the “Wheat plant response rating” value (wheat; [1]) was 0 and the “Wheat plant response rating” value (wheat; [2]) was 0. The “Plant response rating, Wheat” value (wheat; [3]) was 0, the “Plant response rating, Wheat” value (wheat; [4]) was 0 and the “Plant response rating, Wheat” value (wheat; [5]) was 0. The “Wheat plant response rating” value (wheat; [6]) was 0, the “Wheat plant response rating” value (wheat; [7]) was 0 and the “Cocklebur plant response rating” value (cocklebur; [1]) was 0. The “Cocklebur plant response rating” value (cocklebur; [2]) was 0, the “Plant response rating, Cocklebur” value (cocklebur; [3]) was 0 and the “Plant response rating, Cocklebur” value (cocklebur; [5]) was 0. The “Cocklebur plant response rating” value (cocklebur; [6]) was 0, the “Cocklebur plant response rating” value (cocklebur; [7]) was 0 and the “Cocklebur plant response rating” value (cocklebur; [8]) was 0. The “Soybean plant response rating” value (soybean; [1]) was 0, the “Soybean plant response rating” value (soybean; [2]) was 1 and the “Plant response rating, Soybean” value (soybean; [3]) was 0. The “Plant response rating, Soybean” value (soybean; [4]) was 0, the “Plant response rating, Soybean” value (soybean; [5]) was 0 and the “Soybean plant response rating” value (soybean; [6]) was 0. For the same compound, the “Soybean plant response rating” value (soybean; [7]) was 0, the “Barnyardgrass plant response rating” value (bamyardgrass; [1]) was 0 and the “Barnyardgrass plant response rating” value (bamyardgrass; [9]) was 0. For the same compound, the “Barnyardgrass plant response rating” value (bamyardgrass; [10]) was 0, the “Barnyardgrass plant response rating” value (bamyardgrass; [11]) was 0 and the “Rice plant response rating” value (rice; [1]) was 0. For the same compound, the “Rice plant response rating” value (rice; [9]) was 0, the “Rice plant response rating” value (rice; [10]) was 0 and the “Rice plant response rating” value (rice; [11]) was 0. The “Redroot pigweed plant response rating” value (pigweed; [1]) was 0, the “Redroot pigweed plant response rating” value (pigweed; [2]) was 0 and the “Plant response rating, Redroot pigweed” value (pigweed; [3]) was 0. The “Plant response rating, Redroot pigweed” value (pigweed; [4]) was 0, the “Plant response rating, Redroot pigweed” value (pigweed; [5]) was 0 and the “Redroot pigweed plant response rating” value (pigweed; [6]) was 0. The “Redroot pigweed plant response rating” value (pigweed; [7]) was 0, the “Redroot pigweed plant response rating” value (pigweed; [8]) was 0 and the “S. Flatsedge plant response rating” value (smallflower flatsedge; [1]) was 0. For the same compound, the “S. Flatsedge plant response rating” value (smallflower flatsedge; [9]) was 0, the “S. Flatsedge plant response rating” value (smallflower flatsedge; [11]) was 0 and the “B. signalgrass plant response rating” value (surinam grass; [1]) was 0. The “B. signalgrass plant response rating” value (surinam grass; [2]) was 0, the “Plant response rating, B. signalgrass” value (surinam grass; [3]) was 0 and the “Plant response rating, B. signalgrass” value (surinam grass; [4]) was 0. The “Plant response rating, B. signalgrass” value (surinam grass; [5]) was 0, the “B. signalgrass plant response rating” value (surinam grass; [6]) was 0 and the “B. signalgrass plant response rating” value (surinam grass; [7]) was 0. For the same compound, the “B. signalgrass plant response rating” value (surinam grass; [8]) was 0, the “Wild oats plant response rating” value (wild oat; [1]) was 0 and the “Wild oats plant response rating” value (wild oat; [2]) was 0. For the same compound, the “Plant response rating, Wild oats” value (wild oat; [4]) was 0, the “Plant response rating, Wild oats” value (wild oat; [5]) was 0 and the “Wild oats plant response rating” value (wild oat; [6]) was 0. The “Wild oats plant response rating” value (wild oat; [7]) was 0, the “Corn plant response rating” value (corn; [1]) was 0 and the “Corn plant response rating” value (corn; [2]) was 0. For the same compound, the “Plant response rating, Corn” value (corn; [3]) was 0, the “Plant response rating, Corn” value (corn; [4]) was 0 and the “Plant response rating, Corn” value (corn; [5]) was 0. For the same compound, the “Corn plant response rating” value (corn; [6]) was 0, the “Corn plant response rating” value (corn; [7]) was 0 and the “Corn plant response rating” value (corn; [8]) was 0. For the same compound, the “Velvetleaf plant response rating” value (velvetleaf; [1]) was 0, the “Velvetleaf plant response rating” value (velvetleaf; [2]) was 0 and the “Plant response rating, Velvetleaf” value (velvetleaf; [3]) was 0. The “Plant response rating, Velvetleaf” value (velvetleaf; [4]) was 0, the “Plant response rating, Velvetleaf” value (velvetleaf; [5]) was 0 and the “Velvetleaf plant response rating” value (velvetleaf; [6]) was 0. The “Velvetleaf plant response rating” value (velvetleaf; [7]) was 0, the “Crabgrass plant response rating” value (crabgrass; [1]) was 0 and the “Crabgrass plant response rating” value (crabgrass; [2]) was 0. The “Plant response rating, Crabgrass” value (crabgrass; [3]) was 0, the “Plant response rating, Crabgrass” value (crabgrass; [4]) was 0 and the “Plant response rating, Crabgrass” value (crabgrass; [5]) was 0. The “Crabgrass plant response rating” value (crabgrass; [6]) was 2, the “Crabgrass plant response rating” value (crabgrass; [7]) was 0 and the “Crabgrass plant response rating” value (crabgrass; [8]) was 0. For the same compound, the “Morningglory plant response rating” value (morningglory; [1]) was 0, the “Morningglory plant response rating” value (morningglory; [2]) was 0 and the “Plant response rating, Morningglory” value (morningglory; [3]) was 0. The “Plant response rating, Morningglory” value (morningglory; [4]) was 0, the “Plant response rating, Morningglory” value (morningglory; [5]) was 0 and the “Morningglory plant response rating” value (morningglory; [6]) was 0. For the same compound, the “Morningglory plant response rating” value (morningglory; [7]) was 0, the “Morningglory plant response rating” value (morningglory; [8]) was 1 and the “Giant foxtail plant response rating” value (giant foxtail; [1]) was 0. For the same compound, the “Giant foxtail plant response rating” value (giant foxtail; [2]) was 0, the “Plant response rating, Giant foxtail” value (giant foxtail; [3]) was 0 and the “Plant response rating, Giant foxtail” value (giant foxtail; [4]) was 0. For the same compound, the “Plant response rating, Giant foxtail” value (giant foxtail; [5]) was 0, the “Giant foxtail plant response rating” value (giant foxtail; [6]) was 1 and the “Giant foxtail plant response rating” value (giant foxtail; [7]) was 0. For the same compound, the “Giant foxtail plant response rating” value (giant foxtail; [8]) was 0.

— patent US6737383B1, “Herbicidal oxadiazolidines” (priority 1999, dated 2004)
